{"source": "patent US3962282A", "about": "“Juvenile hormone mimics” (priority 1974, dated 1976)", "origin": "cited, not measured here", "settings": "Wigglesworth, J. Ins. Physiol. 9, 105 (1963); cited from earlier work", "data": [{"substance": "9-(2-furyl)-2,6-dimethyl-2,6-nonadiene [dendrolasin]", "values": [{"measurement": "juvenile hormone activity", "value": "some juvenile hormone activity"}]}]}
